Reference: ChEMBL document CHEMBL2413036, “Isoswinholide B and swinholide K, potently cytotoxic dimeric macrolides from Theonella swinhoei” (Bioorg Med Chem, 2013)

Columns and labels:
[1] = test system: HepG2; assay: Antiproliferative activity against human HepG2 cells after 48 hrs by MTT assay; assay type: functional, cell-based; conditions: HepG2, 48 h
[2] = test system: HepG2; assay: Antiproliferative activity against human HepG2 cells assessed as cell growth inhibition at 100 nM after 48 hrs by MTT assay relative to swinholide-A; assay type: functional

SMILES	IC50 [1] [nM]	Efficacy [2] [%]
CO[C@H]1C[C@H](CC[C@H](C)[C@H](O)[C@H](C)[C@H]2OC(=O)/C=C/C(C)=C/C[C@H](O)C[C@@H]3C=CC[C@@H](C[C@H](OC)[C@@H](C)[C@@H](O)C[C@@H](O)[C@H](C)[C@@H]([C@@H](C)[C@@H](O)[C@@H](C)CC[C@H]4C[C@H](OC)C[C@H](C)O4)OC(=O)/C=C/C(C)=C/C[C@H](O)C[C@@H]4C=CC[C@@H](C[C@H](OC)[C@@H](C)[C@@H](O)C[C@@H](O)[C@@H]2C)O4)O3)O[C@@H](C)C1 [Swinholide A]	20	
CO[C@H]1C[C@H](CC[C@H](C)[C@H](O)[C@H](C)[C@H]2OC(=O)/C=C/C(C)=C/C[C@H](O)C[C@@H]3CCC[C@H](C[C@H](OC)[C@@H](C)[C@@H](O)C[C@@H](O)[C@H](C)[C@H](O)[C@@H](C)[C@H]([C@@H](C)CC[C@H]4C[C@H](OC)C[C@H](C)O4)OC(=O)/C=C/C(C)=C/C[C@H](O)C[C@@H]4C=CC[C@H](C[C@H](OC)[C@@H](C)[C@@H](O)C[C@@H](O)[C@@H]2C)O4)O3)O[C@@H](C)C1 [ISOSWINHOLIDE A]	35	16.28
CO[C@H]1C[C@H](CC[C@H](C)[C@H](O)[C@H](C)[C@@H](O)[C@@H](C)[C@H]2C[C@H](O)[C@H](C)[C@@H](OC)C[C@@H]3CC=C[C@@H](C[C@@H](O)C/C=C(C)/C=C/C(=O)O[C@H]([C@@H](C)[C@@H](O)[C@@H](C)CC[C@H]4C[C@H](OC)C[C@H](C)O4)[C@@H](C)[C@H](O)C[C@H](O)[C@H](C)[C@@H](OC)C[C@@H]4CC=C[C@@H](C[C@@H](O)C/C=C(C)/C=C/C(=O)O2)O4)O3)O[C@@H](C)C1	1500	7.52

Further compounds by falling IC50 [1], results first:

IC50 [1] [nM]	SMILES	Efficacy [2] [%]
30	CO[C@H]1C[C@H](CC[C@H](C)[C@H](O)[C@H](C)[C@H]2OC(=O)/C=C/C(C)=C/C[C@H](O)C[C@@H]3C=CC[C@@H](C[C@H](OC)[C@@H](C)[C@@H](O)C[C@@H](O)[C@H](C)[C@@H]([C@@H](C)[C@@H](O)[C@@H](C)CC[C@H]4C[C@H](OC)C[C@H](C)O4)OC(=O)/C=C/C(C)=C/C[C@H](O)C[C@@H]4C=CC[C@@H](C[C@H](O)[C@@H](C)[C@@H](O)C[C@@H](O)[C@@H]2C)O4)O3)O[C@@H](C)C1	45.35
25	CO[C@@H]1C[C@@H](O)C[C@@H](O)[C@H](C)[C@@H]([C@@H](C)[C@@H](O)[C@@H](C)CC[C@H]2C[C@H](OC)C[C@H](C)O2)OC(=O)/C=C/C(C)=C/C[C@H](O)C[C@@H]2C=CC[C@H](C[C@H](OC)[C@@H](C)[C@@H](O)C[C@@H](O)[C@H](C)[C@@H]([C@@H](C)[C@@H](O)[C@@H](C)CC[C@H]3C[C@H](OC)C[C@H](C)O3)OC(=O)/C=C/C(C)=C/C[C@H](O)C[C@@H]3CCC[C@H](C1)O3)O2 [SWINHOLIDE B]	89.38
15	C=C1/C=C/C(=O)O[C@H]([C@@H](C)[C@@H](O)[C@@H](C)CC[C@H]2C[C@H](OC)C[C@H](C)O2)[C@@H](C)[C@H](O)C[C@H](O)[C@H](C)[C@@H](OC)C[C@@H]2CC=C[C@@H](C[C@@H](O)C/C=C(C)/C=C/C(=O)O[C@H]([C@@H](C)[C@@H](O)[C@@H](C)CC[C@H]3C[C@H](OC)C[C@H](C)O3)[C@@H](C)[C@H](O)C[C@H](O)[C@H](C)[C@@H](OC)C[C@@H]3CC=C[C@@H](C[C@@H](O)C[C@H]1O)O3)O2	42.67
